Measurements taken from patent publication US6258790A, “Antisense modulation of integrin α4 expression” (Isis Pharmaceuticals, Inc., priority 1999, dated 2001).

Test system: leukocyte trafficking into the central nervous system of EAE mice
Experiment: Reduction of leukocyte trafficking into the central nervous system of EAE mice (immunostaining of sections)
Format: in vivo, mouse (CSJLF1)
Description: The pieces were embedded in O.C.T. tissue freezing medium (Ted Pella Inc., Redding, Calif.) on dry ice and methylbutane. Four-micron frozen sections were cut and air dried overnight. The sections were fixed for three minutes in ice-cold acetone and then placed on a Dako Autostainer (Dako Corporation, Carpinteria, Calif.) and treated in the following steps: 5 minutes in 0.03% H2 O2, 5 minutes in 5% donkey serum diluted in PBS, 45 minutes in appropriately diluted primary antibody, 30 minutes in horseradish peroxidase-labeled donkey anti-rat secondary antibody (Jackson Laboratory, Bar Harbor, Me.). Sections were rinsed between treatments with PBS. All the antibodies used were rat anti-mouse from PharMingen (San Diego, Calif.), except BM-8, which was from Bachem Bioscience Inc. (King of Prussia, Pa.). The immunostaining was developed with DAB (Dako Corporation) and counterstained with hematoxylin.

17044 (CCGCAGCCATGCGCTCTTGG; phosphorothioate, 2'-MOE/deoxy, further chemistry not given here) [compound 17044]
leukocyte trafficking into the spinal cords and brains (1 mg/kg): reduce leukocyte trafficking into the spinal cords and brains
reduction of leukocyte influx into the central nervous system, 1.0 vs 0.1 mg/kg (EAE experiment 4): dose-dependent effect with 1.0 mg/kg of 17044 causing a greater reduction of leukocyte influx into the central nervous system than did 0.1 mg/kg 17044
CD4+T cells in the central nervous system (one experiment, EAE mice): virtually eliminated
leukocyte trafficking as measured by expression of VLA-4, CD4, BM-8 and CD18 (preliminary experiments, 1 mg/kg): significantly reduced
